Data as given in patent US8846698B2, “Pyrrolo[2,3-d]pyrimidine tropomysin-related kinase inhibitors” (Pfizer Limited, priority 2011, dated 2014).
Like-named read-outs stand apart in the source and are kept apart here.

What was measured:
TRKA [1] = biological target: T1, TRKA (Homo sapiens (Human), UniProt P04629); assay: Isolated TRK enzyme assay (HTRF KinEASE-TK), TRKA; type: biochemical; conditions: isolated TRKA enzyme; read-out: TrkA enzyme potency
Target sequence in this assay (P04629 441-796): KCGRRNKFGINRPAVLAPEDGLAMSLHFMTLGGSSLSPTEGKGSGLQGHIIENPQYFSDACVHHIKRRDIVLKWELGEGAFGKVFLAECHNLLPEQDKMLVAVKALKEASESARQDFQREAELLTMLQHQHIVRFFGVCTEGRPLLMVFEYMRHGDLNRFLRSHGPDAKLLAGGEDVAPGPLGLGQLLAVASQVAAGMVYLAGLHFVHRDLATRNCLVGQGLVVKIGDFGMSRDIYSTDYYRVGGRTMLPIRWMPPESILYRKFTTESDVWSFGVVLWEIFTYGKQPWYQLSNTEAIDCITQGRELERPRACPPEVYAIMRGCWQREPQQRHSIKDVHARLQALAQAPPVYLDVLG

MDR1 = MDR1 (Homo sapiens (Human), UniProt P08183); assay: MDCK-MDR1 assay (in vitro brain penetration); type: in vitro ADME; conditions: human; for Papp A→B: MDCK-MDR1, A to B, read-out: MDCK MDR1 Papp AB; for Papp B→A: read-out: MDCK MDR1 Papp BA
MDR1, sequence (P08183 whole entry): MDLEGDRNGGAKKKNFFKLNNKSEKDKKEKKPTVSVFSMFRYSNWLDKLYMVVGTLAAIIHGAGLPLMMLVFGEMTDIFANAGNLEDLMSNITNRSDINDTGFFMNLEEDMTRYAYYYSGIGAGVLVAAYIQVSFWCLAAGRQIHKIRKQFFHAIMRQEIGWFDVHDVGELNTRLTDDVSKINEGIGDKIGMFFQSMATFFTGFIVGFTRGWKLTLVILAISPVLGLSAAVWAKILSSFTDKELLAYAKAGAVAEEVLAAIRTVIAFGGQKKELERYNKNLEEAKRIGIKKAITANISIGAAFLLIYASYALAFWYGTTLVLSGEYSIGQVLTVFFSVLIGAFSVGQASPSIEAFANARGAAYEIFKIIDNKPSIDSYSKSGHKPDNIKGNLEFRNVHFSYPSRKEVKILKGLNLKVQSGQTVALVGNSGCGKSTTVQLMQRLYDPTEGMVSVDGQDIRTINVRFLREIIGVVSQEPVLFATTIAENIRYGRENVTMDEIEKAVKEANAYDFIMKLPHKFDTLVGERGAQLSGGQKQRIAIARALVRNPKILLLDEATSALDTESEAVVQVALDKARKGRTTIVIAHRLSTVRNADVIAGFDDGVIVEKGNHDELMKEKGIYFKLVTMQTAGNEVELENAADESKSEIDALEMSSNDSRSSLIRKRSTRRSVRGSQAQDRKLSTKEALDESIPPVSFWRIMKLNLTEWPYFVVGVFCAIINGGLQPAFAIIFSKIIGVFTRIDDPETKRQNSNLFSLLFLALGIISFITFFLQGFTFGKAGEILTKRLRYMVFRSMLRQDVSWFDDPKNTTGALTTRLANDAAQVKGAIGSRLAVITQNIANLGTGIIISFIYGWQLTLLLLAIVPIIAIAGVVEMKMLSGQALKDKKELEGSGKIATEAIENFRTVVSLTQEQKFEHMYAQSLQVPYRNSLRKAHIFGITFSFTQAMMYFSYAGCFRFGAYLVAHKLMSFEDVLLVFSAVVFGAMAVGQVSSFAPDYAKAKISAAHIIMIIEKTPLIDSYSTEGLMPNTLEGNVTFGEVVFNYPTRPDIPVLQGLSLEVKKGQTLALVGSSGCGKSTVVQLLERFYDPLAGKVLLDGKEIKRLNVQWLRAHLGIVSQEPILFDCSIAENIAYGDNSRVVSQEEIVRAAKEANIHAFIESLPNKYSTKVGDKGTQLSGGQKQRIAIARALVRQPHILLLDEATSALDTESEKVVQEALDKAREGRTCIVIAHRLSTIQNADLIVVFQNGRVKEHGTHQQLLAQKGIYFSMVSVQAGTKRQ
From the text: MDCK-MDR1: MDCK-MDR1 data were collected according to the method described in “Are MDCK Cells Transfected with the Human MDR1 Gene a Good Model of the Human Intestinal Mucosa?”
http://www.springerlink.com/content/qfhqlqbr4fnp3 khf/fulltext.pdf

TRKB [2] = biological target: T2, TRKB (Homo sapiens (Human), UniProt Q16620); assay: cell-based; conditions: TrkB cell potency, TRKB PathHunter cell line
T2 sequence (Q16620 32-822 limits assumed): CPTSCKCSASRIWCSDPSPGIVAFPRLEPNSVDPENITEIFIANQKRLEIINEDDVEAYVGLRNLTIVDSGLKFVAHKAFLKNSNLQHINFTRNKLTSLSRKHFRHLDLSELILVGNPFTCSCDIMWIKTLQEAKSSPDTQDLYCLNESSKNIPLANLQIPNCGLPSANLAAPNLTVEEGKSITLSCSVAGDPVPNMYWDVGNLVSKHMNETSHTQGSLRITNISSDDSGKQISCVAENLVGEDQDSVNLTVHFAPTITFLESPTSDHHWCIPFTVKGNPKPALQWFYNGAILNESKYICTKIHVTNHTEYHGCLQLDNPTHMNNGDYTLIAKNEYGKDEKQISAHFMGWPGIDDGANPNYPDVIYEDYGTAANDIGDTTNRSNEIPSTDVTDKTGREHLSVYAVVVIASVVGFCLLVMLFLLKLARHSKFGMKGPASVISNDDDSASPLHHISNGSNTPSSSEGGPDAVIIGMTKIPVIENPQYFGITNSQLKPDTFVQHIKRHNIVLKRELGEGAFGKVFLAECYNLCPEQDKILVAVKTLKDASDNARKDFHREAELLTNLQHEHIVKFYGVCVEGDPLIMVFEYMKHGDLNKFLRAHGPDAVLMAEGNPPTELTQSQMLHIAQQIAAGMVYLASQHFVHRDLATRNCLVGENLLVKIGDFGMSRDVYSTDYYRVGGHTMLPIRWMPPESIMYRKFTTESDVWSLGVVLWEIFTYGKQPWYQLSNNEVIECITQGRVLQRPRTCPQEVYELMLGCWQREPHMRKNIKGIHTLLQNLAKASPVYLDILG

TRKB [3] = biological target: T2, TRKB; assay: biochemical
TRKA [4] = biological target: T1, TRKA; assay: Cell based DiscoveRx PathHunter antagonist assay, TRKA cell line; conditions: read-out: TrkA cell potency
Target sequence in this assay (P04629 33-796): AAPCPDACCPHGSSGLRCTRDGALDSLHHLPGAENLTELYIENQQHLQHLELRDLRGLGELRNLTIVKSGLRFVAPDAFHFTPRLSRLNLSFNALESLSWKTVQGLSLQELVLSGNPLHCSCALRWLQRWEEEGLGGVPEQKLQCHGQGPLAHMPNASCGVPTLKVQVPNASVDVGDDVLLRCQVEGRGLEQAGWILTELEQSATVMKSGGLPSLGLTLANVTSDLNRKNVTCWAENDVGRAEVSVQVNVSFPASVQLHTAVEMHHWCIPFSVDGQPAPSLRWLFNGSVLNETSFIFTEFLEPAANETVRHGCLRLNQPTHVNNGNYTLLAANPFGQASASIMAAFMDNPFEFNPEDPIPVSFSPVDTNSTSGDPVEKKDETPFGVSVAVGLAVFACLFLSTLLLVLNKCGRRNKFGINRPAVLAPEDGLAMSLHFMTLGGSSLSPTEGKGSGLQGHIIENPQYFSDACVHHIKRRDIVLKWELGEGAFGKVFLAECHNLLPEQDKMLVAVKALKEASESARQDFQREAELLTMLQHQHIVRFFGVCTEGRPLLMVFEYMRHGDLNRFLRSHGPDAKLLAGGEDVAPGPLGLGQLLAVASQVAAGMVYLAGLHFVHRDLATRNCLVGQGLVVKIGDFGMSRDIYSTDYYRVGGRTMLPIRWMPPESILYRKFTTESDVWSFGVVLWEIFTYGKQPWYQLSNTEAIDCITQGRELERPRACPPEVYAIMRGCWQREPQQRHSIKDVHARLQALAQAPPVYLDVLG

TRKC = TRKC (Homo sapiens (Human), UniProt Q16288); assay: Cell based DiscoveRx PathHunter antagonist assay, TRKC cell line; conditions: read-out: TrkC cell potency
TRKC, sequence (Q16288 32-839): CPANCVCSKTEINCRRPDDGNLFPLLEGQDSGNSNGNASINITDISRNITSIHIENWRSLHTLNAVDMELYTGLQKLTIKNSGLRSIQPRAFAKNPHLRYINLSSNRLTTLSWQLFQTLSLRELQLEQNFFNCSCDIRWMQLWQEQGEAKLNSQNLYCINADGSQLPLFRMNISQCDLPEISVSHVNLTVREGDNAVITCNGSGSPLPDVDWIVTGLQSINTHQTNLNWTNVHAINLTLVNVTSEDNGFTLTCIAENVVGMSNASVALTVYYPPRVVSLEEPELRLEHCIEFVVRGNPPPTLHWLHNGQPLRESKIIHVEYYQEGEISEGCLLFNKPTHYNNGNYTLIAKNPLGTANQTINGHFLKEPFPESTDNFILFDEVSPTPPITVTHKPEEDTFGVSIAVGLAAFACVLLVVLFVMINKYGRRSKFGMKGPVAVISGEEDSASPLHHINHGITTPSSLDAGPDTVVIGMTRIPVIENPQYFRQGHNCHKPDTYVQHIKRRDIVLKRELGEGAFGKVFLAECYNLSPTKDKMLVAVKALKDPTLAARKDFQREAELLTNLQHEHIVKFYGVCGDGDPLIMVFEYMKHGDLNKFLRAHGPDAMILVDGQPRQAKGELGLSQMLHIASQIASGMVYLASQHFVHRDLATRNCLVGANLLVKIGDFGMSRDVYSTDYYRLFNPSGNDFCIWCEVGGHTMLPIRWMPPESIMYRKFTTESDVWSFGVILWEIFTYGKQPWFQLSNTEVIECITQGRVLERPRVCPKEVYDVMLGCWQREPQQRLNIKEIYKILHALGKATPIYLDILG
Description: After the Detection Reagent addition, plates are covered and incubated at room temperature for 60 minutes. […] Test compound data are expressed as percentage inhibition defined by HPE and ZPE values for each plate. Percentage inhibition in the presence of test compound is plotted against compound concentration on a log scale to determine an IC50 from the resultant sigmoid curve. Cell Based Assays were carried out using Cell lines from DiscoveRx utilising their PathHunter technology and reagents in an antagonist assay:
The assays are based upon DiscoveRx's proprietary Enzyme Fragment Complementation (EFC) technology. In the case of the TRK cell lines, the enzyme acceptor (EA) protein is fused to a SH2 protein and the TRK receptor of interest has been tagged with a Prolink tag.
Upon neurotrophin binding, the TRK receptor becomes phosphorylated, and the tagged SH2 protein binds.
This means that the IC50 is a good measure of affinity and should be unaffected by concentration neurotrophin stimulant.
Cryopreserved PathHunter cells are used from either in-house produced batches or bulk batches bought directly from DiscoveRx. Cryopreserved cells are resuscitated, spun 1000 rpm for 4 min to remove freezing media, and resuspended in MEM+0.5% horse serum (both Invitrogen) to 5e^5 cells/ml. The cells are then plated using a Multidrop into Greiner white tissue culture treated plates at 20 ul/well and incubated for 24 h at 37° C., 5% CO2, high humidity. On the day of the assay, the cell plates are allowed to cool to room temperature for 30 min prior to the assay.
Plates containing 1 ul of serially diluted compound, standard and HPE/ZPE are diluted 1/66 in assay buffer (PBS minus Ca^2+, minus Mg^2+ with 0.05% pluronic F127) using a Wellmate. […] The plates are left at room temperature for a further 2 hours before addition of 10 ul of the DiscoveRx PathHunter detection reagent (made up by adding 1 part Galacton Star, 5 parts Emerald II and 19 parts Cell Assay Buffer as per the manufacturer's instructions).
After reagent addition, plates are covered and incubated at room temperature for 60 minutes. Luminescence signal is read using an Envision. Test compound data are expressed as percentage inhibition defined by HPE and ZPE values for each plate. Percentage inhibition in the presence of test compound is plotted against compound concentration on a log scale to determine an […] from the resultant sigmoid curve.

BCRP (ABCG2) = BCRP (ABCG2) (Homo sapiens (Human), UniProt Q9UNQ0); assay: MDCK-BCRP efflux assay (in vitro brain penetration); type: in vitro ADME; conditions: dog; for Papp A→B: A to B, read-out: RRCK BCRP Papp AB; for Papp B→A: B to A, read-out: RRCK BCRP Papp BA
BCRP (ABCG2), sequence (Q9UNQ0 whole entry): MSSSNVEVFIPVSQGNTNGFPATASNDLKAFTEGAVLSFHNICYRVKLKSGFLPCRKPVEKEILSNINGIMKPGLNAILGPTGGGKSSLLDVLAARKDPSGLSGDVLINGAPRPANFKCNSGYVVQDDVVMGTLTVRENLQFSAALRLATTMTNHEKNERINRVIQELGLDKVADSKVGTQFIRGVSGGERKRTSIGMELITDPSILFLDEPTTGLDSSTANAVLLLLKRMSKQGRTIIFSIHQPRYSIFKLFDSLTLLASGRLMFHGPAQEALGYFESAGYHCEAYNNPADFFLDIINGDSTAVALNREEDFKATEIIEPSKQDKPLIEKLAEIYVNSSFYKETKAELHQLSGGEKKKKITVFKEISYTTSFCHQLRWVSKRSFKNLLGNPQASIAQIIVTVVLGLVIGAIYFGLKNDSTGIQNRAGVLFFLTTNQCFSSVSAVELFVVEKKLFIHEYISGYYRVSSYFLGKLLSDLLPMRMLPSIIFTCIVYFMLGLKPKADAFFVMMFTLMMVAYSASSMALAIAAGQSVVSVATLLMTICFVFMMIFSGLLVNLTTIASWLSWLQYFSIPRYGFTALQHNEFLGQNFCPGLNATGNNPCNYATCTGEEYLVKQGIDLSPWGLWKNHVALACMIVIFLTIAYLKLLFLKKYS

Row | IC50 (TRKA [1]) | Papp A→B (MDR1) | Papp B→A (MDR1; MDCK-MDR1, B to A) | IC50 (TRKB [2]) | IC50 (TRKB [3]; TrkB enzyme potency) | IC50 (TRKA [4]) | IC50 (TRKC) | Papp A→B (BCRP (ABCG2)) | Papp B→A (BCRP (ABCG2)) | Papp B→A (MDR1; MDCK-MDR1, MDCK-MDR1, B to A) | IC50 (TRKB [3]; isolated TRKB enzyme, read-out: TrkB enzyme potency) | SMILES
1 | 3.9 nM | < 1 ×10⁻⁶ cm/s | 13 ×10⁻⁶ cm/s | 6.5 nM | 162 nM | 5.7 nM | 4.4 nM | 12 ×10⁻⁶ cm/s | 39 ×10⁻⁶ cm/s |  |  | CC(C)(C)n1cc(C(=O)c2cncc(NC(=O)Cn3cc(C4CC4)nn3)c2)c2cncnc21 [Example 4, N-{5-[(7-tert-butyl-7H-pyrrolo[2,3-d]pyrimidin-5-yl)carbonyl]pyridin-3-yl}-2-(4-cyclopropyl-1H-1,2,3-triazol-1-yl)acetamide]
2 | 3.7 nM | < 1 ×10⁻⁶ cm/s |  | 6.6 nM |  | 13 nM | 5.9 nM | 9 ×10⁻⁶ cm/s | 43 ×10⁻⁶ cm/s | 20 ×10⁻⁶ cm/s | 94 nM | C[C@@H](CO)n1cc(C(=O)c2cncc(NC(=O)Cc3ccc(C(F)(F)F)cc3)c2)c2cncnc21 [Example 9, N-[5-({7-[(1S)-2-Hydroxy-1-methylethyl]-7H-pyrrolo[2,3-d]pyrimidin-5-yl}carbonyl)pyridin-3-yl]-2-[4-(trifluoromethyl)phenyl]acetamide]
3 | 3.5 nM | < 1 ×10⁻⁶ cm/s | 16 ×10⁻⁶ cm/s | 5.9 nM | 30 nM | 14 nM | 8.6 nM | 7.5 ×10⁻⁶ cm/s | 32 ×10⁻⁶ cm/s |  |  | Cc1cc(C(F)(F)F)nn1CC(=O)Nc1cncc(C(=O)c2cn(C(C)(C)CO)c3ncncc23)c1 [Example 26, N-(5-{[7-(2-hydroxy-1,1-dimethylethyl)-7H-pyrrolo[2,3-d]pyrimidin-5-yl]carbonyl}pyridin-3-yl)-2-[5-methyl-3-(trifluoromethyl)-1H-pyrazol-1-yl]acetamide]
4 |  | < 1 ×10⁻⁶ cm/s |  |  |  |  |  | 7 ×10⁻⁶ cm/s | 31 ×10⁻⁶ cm/s | 18 ×10⁻⁶ cm/s |  | CC(C)(CO)n1cc(C(=O)c2cncc(NC(=O)Cc3ccc(Cl)cn3)c2)c2cnc(N)nc21 [Example 46, N-(5-{[2-Amino-7-(2-hydroxy-1,1-dimethylethyl)-7H-pyrrolo[2,3-d]pyrimidin-5-yl]carbonyl}pyridin-3-yl)-2-(5-chloropyridin-2-yl)acetamide]
5 | 3.1 nM | < 1 ×10⁻⁶ cm/s | 9.1 ×10⁻⁶ cm/s | 16 nM | 103 nM | 22 nM | 8.1 nM |  |  |  |  | CC(C)(CO)n1cc(C(=O)c2cncc(NC(=O)Cn3ccc(C(F)(F)F)n3)c2)c2cnc(N)nc21 [Example 52, N-(5-{[2-amino-7-(2-hydroxy-1,1-dimethylethyl)-7H-pyrrolo[2,3-d]pyrimidin-5-yl]carbonyl}pyridin-3-yl)-2-[3-(trifluoromethyl)-1H-pyrazol-1-yl]acetamide]
6 | 4 nM | < 1 ×10⁻⁶ cm/s | 13 ×10⁻⁶ cm/s | 5 nM | 163 nM | 16 nM | 8.6 nM |  |  |  |  | CC(C)(CO)n1cc(C(=O)c2cncc(NC(=O)Cn3ccc(C4CC4)n3)c2)c2cnc(N)nc21 [Example 53, N-(5-{[2-amino-7-(2-hydroxy-1,1-dimethylethyl)-7H-pyrrolo[2,3-d]pyrimidin-5-yl]carbonyl}pyridin-3-yl)-2-(3-cyclopropyl-1H-pyrazol-1-yl)acetamide]
